Measured values as given in patent publication US6355799B1, “Substituted benzene compounds, process for their preparation, and herbicidal and defoliant compositions containing them” (ISK Americas Incorporated, priority 1997, dated 2002).

Legend:
Format in all cases: in vivo
[1] = tested on: redroot pigweed (Amaranthus retroflexus, AMARE); experiment: Pre-emerge test, greenhouse herbicide activity screening; conditions: pre-emerge, rated 14 days after application, 0 = no damage, 100 = complete death
How it was run: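 Plants grown in 10 cm pots of sandy loam mix received acetone-dissolved compounds through a moving flat-fan nozzle. Doses ranged from 15 to 1000 g ai/ha. Pre-emerge pots were seeded one day earlier, post-emerge pots 8–21 days earlier. Fourteen days on, each pot was graded 0–100 for damage.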

[2] = tested on: barnyardgrass (Echinochloa crus-galli, ECHCG); experiment: as above; conditions: pre-emerge, rated 14 days after application, 0 = no damage, 100 = complete death
How it was run: (§1)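 Herbicidal damage is scored 0 (none) to 100 (complete plant death) two weeks after a simulated field spray. Rates span 15–1000 g ai/ha, delivered in acetone at 187 l/ha. For post-emergence treatments, plants have 2–3 leaves and the spray carries 0.25% v/v non-ionic surfactant.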

[3] = tested on: green foxtail (Setaria viridis, SETVI); experiment: as above; conditions: pre-emerge, rated 14 days after application, 0 = no damage, 100 = complete death
How it was run: as §1

[4] = tested on: ivyleaf morningglory (Ipomoea hederacea, IPOHE); experiment: as above; conditions: pre-emerge, rated 14 days after application, 0 = no damage, 100 = complete death
How it was run: as §1

[5] = tested on: johnsongrass (Sorghum halepense, SORHA); experiment: as above; conditions: pre-emerge, rated 14 days after application, 0 = no damage, 100 = complete death
How it was run: as §1

[6] = tested on: lambsquarters (Chenopodium album, CHEAL); experiment: as above; conditions: pre-emerge, rated 14 days after application, 0 = no damage, 100 = complete death
How it was run: as §1

[7] = tested on: large crabgrass (Digitaria sanguinalis, DIGSA); experiment: as above; conditions: pre-emerge, rated 14 days after application, 0 = no damage, 100 = complete death
How it was run: as §1

[8] = tested on: sicklepod (Cassia obtusifolia, CASOB); experiment: as above; conditions: pre-emerge, rated 14 days after application, 0 = no damage, 100 = complete death
How it was run: as §1

[9] = tested on: velvetleaf (Abutilon theophrasti, ABUTH); experiment: as above; conditions: pre-emerge, rated 14 days after application, 0 = no damage, 100 = complete death
How it was run: as §1

[10] = tested on: field corn (Zea mays L., var. Dekalb 535, CORN); experiment: Pre-emerge test, crop safety; conditions: pre-emerge, rated 14 days after application, 0 = no damage, 100 = complete death
How it was run: (§2)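 Sandy loam pots; pre-emerge: sown 1 d pre-spray, surface-watered after, then bottom-watered. Post-emerge: sown 8–21 d before, 2–3 leaf stage, + 0.25% v/v NIS, bottom-watered. Acetone, 187 l/ha track spray, 15–1000 g ai/ha. 0–100 injury score, day 14.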

[11] = tested on: upland rice (Oryza sp., var. Tebonnet, RICE); experiment: Pre-emerge test, crop safety; conditions: pre-emerge, rated 14 days after application, 0 = no damage, 100 = complete death
How it was run: as §2

[12] = tested on: barnyardgrass (Echinochloa crus-galli, ECHCG); experiment: Post-emerge test, greenhouse herbicide activity screening; conditions: phytotoxicity rating 0-100 (0 no damage, 100 complete death), 14 days after application
How it was run: (§3)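 Compounds in acetone were track-sprayed at 187 l/ha, 15–1000 g ai/ha, onto sandy loam pots. Pre-emerge seeds were sown one day before spraying, with surface watering afterwards. Post-emerge plants were at the 2–3 leaf stage and sprayed with 0.25% v/v non-ionic surfactant. Injury was rated 0–100 at 14 days.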

[13] = tested on: green foxtail (Setaria viridis, SETVI); experiment: as above; conditions: phytotoxicity rating 0-100 (0 no damage, 100 complete death), 14 days after application
How it was run: as §3

[14] = tested on: ivyleaf morningglory (Ipomoea hederacea, IPOHE); experiment: as above; conditions: phytotoxicity rating 0-100 (0 no damage, 100 complete death), 14 days after application
How it was run: as §3

[15] = tested on: johnsongrass (Sorghum halepense, SORHA); experiment: as above; conditions: phytotoxicity rating 0-100 (0 no damage, 100 complete death), 14 days after application
How it was run: as §3

[16] = tested on: lambsquarters (Chenopodium album, CHEAL); experiment: as above; conditions: phytotoxicity rating 0-100 (0 no damage, 100 complete death), 14 days after application
How it was run: as §3

[17] = tested on: large crabgrass (Digitaria sanguinalis, DIGSA); experiment: as above; conditions: phytotoxicity rating 0-100 (0 no damage, 100 complete death), 14 days after application
How it was run: as §3

[18] = tested on: redroot pigweed (Amaranthus retroflexus, AMARE); experiment: as above; conditions: phytotoxicity rating 0-100 (0 no damage, 100 complete death), 14 days after application
How it was run: as §3

[19] = tested on: velvetleaf (Abutilon theophrasti, ABUTH); experiment: as above; conditions: phytotoxicity rating 0-100 (0 no damage, 100 complete death), 14 days after application
How it was run: as §3

[20] = tested on: field corn (Zea mays L., var. Dekalb 535, CORN); experiment: Post-emerge test, crop safety; conditions: phytotoxicity rating 0-100 (0 no damage, 100 complete death), 14 days after application
How it was run: as §1

[21] = tested on: upland rice (Oryza sp., var. Tebonnet, RICE); experiment: Post-emerge test, crop safety; conditions: phytotoxicity rating 0-100 (0 no damage, 100 complete death), 14 days after application
How it was run: as §1

With C=Cc1ccc(C(=O)Nc2c(OC)c(Cl)cc(F)c2-n2c(=O)cc(C(F)(F)F)n(C)c2=O)cc1 [2-31] the “Pre-emerge Herbicidal Activity AMARE (phytotoxicity rating, scale 0-100)” value ([1]; 63 g ai/ha) was 100, the “Pre-emerge Herbicidal Activity AMARE (phytotoxicity rating, scale 0-100)” value ([1]; 250 g ai/ha) was 100 and the “Pre-emerge Herbicidal Activity ECHCG (phytotoxicity rating, scale 0-100)” value ([2]; 63 g ai/ha) was 40. The “Pre-emerge Herbicidal Activity ECHCG (phytotoxicity rating, scale 0-100)” value ([2]; 250 g ai/ha) was 100, the “Pre-emerge Herbicidal Activity SETVI (phytotoxicity rating, scale 0-100)” value ([3]; 63 g ai/ha) was 100 and the “Pre-emerge Herbicidal Activity SETVI (phytotoxicity rating, scale 0-100)” value ([3]; 250 g ai/ha) was 100. For the same compound, the “Pre-emerge Herbicidal Activity IPOHE (phytotoxicity rating, scale 0-100)” value ([4]; 63 g ai/ha) was 100, the “Pre-emerge Herbicidal Activity IPOHE (phytotoxicity rating, scale 0-100)” value ([4]; 250 g ai/ha) was 100 and the “Pre-emerge Herbicidal Activity SORHA (phytotoxicity rating, scale 0-100)” value ([5]; 63 g ai/ha) was 60. The “Pre-emerge Herbicidal Activity SORHA (phytotoxicity rating, scale 0-100)” value ([5]; 250 g ai/ha) was 85, the “Pre-emerge Herbicidal Activity CHEAL (phytotoxicity rating, scale 0-100)” value ([6]; 63 g ai/ha) was 100 and the “Pre-emerge Herbicidal Activity CHEAL (phytotoxicity rating, scale 0-100)” value ([6]; 250 g ai/ha) was 100. The “Pre-emerge Herbicidal Activity DIGSA (phytotoxicity rating, scale 0-100)” value ([7]; 63 g ai/ha) was 90, the “Pre-emerge Herbicidal Activity DIGSA (phytotoxicity rating, scale 0-100)” value ([7]; 250 g ai/ha) was 100 and the “Pre-emerge Herbicidal Activity CASOB (phytotoxicity rating, scale 0-100)” value ([8]; 63 g ai/ha) was 100. For the same compound, the “Pre-emerge Herbicidal Activity CASOB (phytotoxicity rating, scale 0-100)” value ([8]; 250 g ai/ha) was 100, the “Pre-emerge Herbicidal Activity ABUTH (phytotoxicity rating, scale 0-100)” value ([9]; 63 g ai/ha) was 100 and the “Pre-emerge Herbicidal Activity ABUTH (phytotoxicity rating, scale 0-100)” value ([9]; 250 g ai/ha) was 100. The “Pre-emerge crop damage CORN (phytotoxicity rating, scale 0-100)” value ([10]; 63 g ai/ha) was 20, the “Pre-emerge crop damage CORN (phytotoxicity rating, scale 0-100)” value ([10]; 250 g ai/ha) was 40 and the “Pre-emerge crop damage RICE (phytotoxicity rating, scale 0-100)” value ([11]; 63 g ai/ha) was 40. The “Pre-emerge crop damage RICE (phytotoxicity rating, scale 0-100)” value ([11]; 250 g ai/ha) was 90, the “Post-emerge Herbicidal Activity ECHCG” value ([12]; 63 g ai/ha) was 10 and the “Post-emerge Herbicidal Activity ECHCG” value ([12]; 250 g ai/ha) was 40. The “Post-emerge Herbicidal Activity SETVI” value ([13]; 63 g ai/ha) was 10, the “Post-emerge Herbicidal Activity SETVI” value ([13]; 250 g ai/ha) was 20 and the “Post-emerge Herbicidal Activity IPOHE” value ([14]; 63 g ai/ha) was 90. The “Post-emerge Herbicidal Activity IPOHE” value ([14]; 250 g ai/ha) was 100, the “Post-emerge Herbicidal Activity SORHA” value ([15]; 63 g ai/ha) was 10 and the “Post-emerge Herbicidal Activity SORHA” value ([15]; 250 g ai/ha) was 30. For the same compound, the “Post-emerge Herbicidal Activity CHEAL” value ([16]; 63 g ai/ha) was 80, the “Post-emerge Herbicidal Activity CHEAL” value ([16]; 250 g ai/ha) was 95 and the “Post-emerge Herbicidal Activity DIGSA” value ([17]; 63 g ai/ha) was 0. For the same compound, the “Post-emerge Herbicidal Activity DIGSA” value ([17]; 250 g ai/ha) was 20, the “Post-emerge Herbicidal Activity AMARE” value ([18]; 63 g ai/ha) was 100 and the “Post-emerge Herbicidal Activity AMARE” value ([18]; 250 g ai/ha) was 90. The “Post-emerge Herbicidal Activity ABUTH” value ([19]; 63 g ai/ha) was 100, the “Post-emerge Herbicidal Activity ABUTH” value ([19]; 250 g ai/ha) was 100 and the “Post-emerge Herbicidal Activity CORN (crop damage)” value ([20]; 63 g ai/ha) was 40. For the same compound, the “Post-emerge Herbicidal Activity CORN (crop damage)” value ([20]; 250 g ai/ha) was 60, the “Post-emerge Herbicidal Activity RICE (crop damage)” value ([21]; 63 g ai/ha) was 50 and the “Post-emerge Herbicidal Activity RICE (crop damage)” value ([21]; 250 g ai/ha) was 70.
